From US8609173B2, “Compositions comprising sweetness enhancers and methods of making them” (Senomyx Inc., priority 2008, dated 2013)
In brackets after ≈: the same amount, converted by molar mass.

What was measured:
[1] = Solubility in buffers and food grade solvents (Table 14); type: physicochemical
Protocol: Solubility of 3-(4-amino-2,2-dioxide-1H-benzo[c][1,2,6]thiadiazin-5-yloxy)-2′,2′-dimethyl-N-propylpropanamide
Various solutions of 3-(4-amino-2,2-dioxide-1H-benzo[c][1,2,6]thiadiazin-5-yloxy)-2′,2′-dimethyl-N-propylpropanamide 3-(4-amino-2,2-dioxide-1H-benzo[c][1,2,6]thiadiazin-5-yloxy)-2′,2′-dimethyl-N-propylpropanamide were prepared as indicated below.

External panelists = experiment: Line scale sensory test, Example 6, fructose as sweetener, pH 7.1; type: in vivo, Human; parameters: Average Sweetness / Average Bitterness: scale not given here
Protocol: Sensory evaluations were performed using fructose as the sweetener and 3-(4-amino-2,2-dioxide-1H-benzo[c][1,2,6]thiadiazin-5-yloxy)-2′,2′-dimethyl-N-propylpropanamide as the sweetness enhancer, using methods similar to those using sucrose, above. […]

Panelists [2] = experiment: Paired comparison taste test, strawberry yogurt; type: in vivo, Human
Protocol: Two strawberry yogurt compositions were prepared and then mixed with plain, nonfat yogurt. One strawberry fruit composition was sweetened with a mixture of sucrose and fructose, and a second strawberry fruit composition was sweetened with ⅓ less sucrose and 3 ppm of 3-(4-amino-2,2-dioxide-1H-benzo[c][1,2,6]thiadiazin-5-yloxy)-2′,2′-dimethyl-N-propylpropanamide. The compositions of the two fruit compositions are as follows:
Panelists evaluated two yogurt compositions in a paired comparison taste test procedure and were instructed to select the sweeter of the two samples. They perform a total of three paired comparison tests each containing the following samples: Strawberry Yogurt with 100% Sucrose vs. Strawberry Yogurt with 66.6% Sucrose+3 ppm (8.47 μM) 3-(4-amino-2,2-dioxide-1H-benzo[c][1,2,6]thiadiazin-5-yloxy)-2′,2′-dimethyl-N-propylpropanamide.
Strawberry Yogurt Preparation: 1000 g batches of finished strawberry yogurt was made by adding 16% (by weight) strawberry fruit prep to 84% (by weight) plain nonfat yogurt and mixing with a wire whip until homogenous, a minimum of five minutes. The Compound A was dissolved into a 0.10% concentration level in propylene glycol and then added to the strawberry yogurt and mixed with a wire whip until homogenous, about 5 minutes.

Panelists [3] = experiment: Paired comparison taste test, flavored water; type: in vivo, Human
Protocol: Two sweetened water solutions were prepared and compared: Flavored Water with 9% Sucrose vs. Flavored Water with 6% Sucrose+2.3 ppm (6.49 μM) of 5-(neopentyloxy)-1H-benzo[c][1,2,6]thiadiazin-4-amino-2,2-dioxide.
Mixing procedures: Dissolve acid into the water using a Lightnin® blender, mix for 5 minutes. Add sugar and continue to mix until dissolved. Add flavors last. Dissolve Compound A into a 0.50% propylene glycol mixture, add last and mix for another 5 minutes. Procedure:
(§1) Panelists evaluated two sweetened water solutions in a paired comparison taste test procedure and were instructed to select the sweeter of the two samples. They perform a total of three paired comparison tests each containing the following samples: Flavored Water with 9% Sucrose vs. Flavored Water with 6% Sucrose+2.3 ppm (6.49 μM) 5-(neopentyloxy)-1H-benzo[c][1,2,6]thiadiazin-4-amino-2,2-dioxide.
Two sweetened water solutions were prepared and compared: Flavored Water with 9% Sucrose vs. Flavored Water with 6% Sucrose+2.44 ppm (6.49 μM) of 3-(4-amino-2,2-dioxide-1H-benzo[c][1,2,6]thiadiazin-5-yloxy)-2′,2′-dimethyl-N-propylpropanamide.
as §1, with “Sucrose+2.44” for “Sucrose+2.3”, “3-(4-amino-2,2-dioxide-1H-benzo[c][1,2,6]thiadiazin-5-yloxy)-2′,2′-dimethyl-N-propylpropanamide.” for “5-(neopentyloxy)-1H-benzo[c][1,2,6]thiadiazin-4-amino-2,2-dioxide.”

Panelists [4] = experiment: Paired comparison human taste test, frosted flakes cereal; type: in vivo
Protocol: Frosted Flakes cereals were prepared using the following ingredients and evaluated for sweetness. The sugar frosting contained a reduced amount of sucrose (compared to the “100% sucrose” sugar coated flake cereal) and 15 ppm of 3-(4-amino-2,2-dioxide-1H-benzo[c][1,2,6]thiadiazin-5-yloxy)-2′,2′-dimethyl-N-propylpropanamide.
A Kitchen Aide mixer is equipped with a wire whip attachment and used for mixing sugar and tapioca dextrin. Mix for 5 minutes. Dissolve gum arabic in water using a magnetic stir bar and stir plate. Mix for 1 minute. Add the remaining dry ingredients and compound (if necessary) and heat until the solution reaches 230° F. for 1 minute. The compound was solubilized in ethanol to a 0.30% concentration level before adding to the syrup; this gave a better homogeneity throughout the syrup.
Place weighed amount of corn flakes in the tumbler. Add desired amount of syrup as soon as the syrup is ready. Tumble for 30 minutes while heating the flakes with a heat gun. Further dry the flakes in the convection oven for 200° F. for 50 minutes.
Panelists evaluated the two cereal samples in a paired comparison taste test procedure and were instructed to select the sweeter of the two samples.

[5] = 33% Reduced Sucrose Frosted Flakes + 15 ppm compound chosen, 14 panelists

Solubility (ppm) ([1]; Citric Acid Buffer, pH 2.8): 50 ppm | Solubility (ppm) ([1]; Citric Acid Buffer, pH 4.0): 50 ppm | Solubility (ppm) ([1]; Ethanol): 3757 ppm | Solubility (ppm) ([1]; Glycerol): 2800 ppm | Solubility (ppm) ([1]; Phosphate Buffer, pH 7.1): 602 ppm | Solubility (ppm) ([1]; Propylene Glycol (PG)): 6096 ppm | Solubility (ppm) ([1]; Triacetin): 567 ppm | solubility ([1]; aqueous buffer, Citric Acid Buffer, pH 4.0): 140 µM (≈ 49.6 µg/mL) | solubility ([1]; citric acid buffer, pH 2.8, aqueous buffer): 140 µM (≈ 49.6 µg/mL) | solubility ([1]; ethanol, organic solvent or mixture): 10600 µM (≈ 3760 µg/mL) | solubility ([1]; glycerol, organic solvent or mixture): 7900 µM (≈ 2800 µg/mL) | solubility ([1]; organic solvent or mixture, Propylene Glycol (PG)): 17200 µM (≈ 6100 µg/mL) | solubility ([1]; phosphate buffer, pH 7.1, aqueous buffer): 1700 µM (≈ 603 µg/mL) | solubility ([1]; triacetin, organic solvent or mixture): 1600 µM (≈ 567 µg/mL)
SMILES: CCCNC(=O)C(C)(C)COc1cccc2c1C(N)=NS(=O)(=O)N2 [3-(4-amino-2,2-dioxide-1H-benzo[c][1,2,6]thiadiazin-5-yloxy)-2′,2′-dimethyl-N-propylpropanamide]
aqueous solubility (conclusion) ([1]; aqueous buffers pH 2.8-7.1): pH dependent, and lower solubility was found at low pH | off tastes (External panelists; 25 μM compound in 6% fructose, LSB, pH 7.1): no significant off tastes | Average Sweetness (External panelists; 30 μM (10.6 ppm) compound, no fructose, pH 7.1, n = 30): 0.6 | off tastes (External panelists; 30.0 μM and 40 μM compound): no significant off tastes | Average Bitterness (External panelists; 30 μM compound, no fructose, n = 30): 0.4 | Sweetness vs fructose solutions (conclusion) (External panelists; 30.0 μM compound, p>0.10): not significantly different in sweetness compared to 0% and 2% fructose respectively | Average Sweetness (External panelists; 40 μM (14.2 ppm) compound, no fructose, pH 7.1, n = 30): 1.1 | Average Bitterness (External panelists; 40 μM compound, no fructose, n = 30): 0.6 | Sweetness vs fructose solutions (conclusion) (External panelists; 40 μM compound, p>0.10): not significantly different in sweetness compared to 0% and 2% fructose respectively | off tastes (External panelists; 100 μM compound in 6% fructose, LSB, pH 7.1): no significant off tastes | Average Sweetness (External panelists; 6% Fructose + 25 μM (8.9 ppm) compound, pH 7.1, n = 26): 7.8 | Average Bitterness (External panelists; 6% Fructose + 25 μM compound, n = 26): 0.2 | Average Sweetness (External panelists; 6% Fructose + 100 μM (35.4 ppm) compound, pH 7.1, n = 14): 9.2 | Average Bitterness (External panelists; 6% Fructose + 100 μM compound, n = 14): 0.3 | Sweetness vs fructose solutions (conclusion) (External panelists; 6% fructose + 25 μM compound, p>0.05): significantly sweeter than 6% fructose | Sweetness vs fructose solutions (conclusion) (External panelists; 6% fructose + 100 μM compound, p>0.10): not significantly different than 8% or 9% fructose | Sample selected as sweeter by panelists, Total (Panelists [2]; Strawberry Yogurt with 4.5% Sucrose + 3 ppm (8.47 μM) compound chosen, vs 6.7% Sucrose, n = 72): 33 | Sweetness comparison (conclusion) (Panelists [2]; Strawberry Yogurt with 66.6% Sucrose + 3 ppm (8.47 μM) compound vs 100% Sucrose, p>0.10): not significantly different in sweetness | Sample selected as sweeter by panelists, Total (Panelists [3]; Flavored Water with 6% Sucrose + 2.44 ppm (6.49 μM) compound chosen, vs 9% Sucrose, n = 42): 20 | Sweetness comparison (conclusion) (Panelists [3]; Flavored Water with 6% Sucrose + 2.44 ppm (6.49 μM) compound vs 9% Sucrose, p>0.10): not significantly different in sweetness | Sample selected as sweeter by panelists, Test 1 (Panelists [4]; [5]): 6 | Sample selected as sweeter by panelists, Test 2 (Panelists [4]; [5]): 9 | Sample selected as sweeter by panelists, Test 3 (Panelists [4]; [5]): 9 | Sample selected as sweeter by panelists, Total (Panelists [4]; 33% Reduced Sucrose Frosted Flakes + 15 ppm compound chosen, n = 42): 24 | Sweetness comparison (conclusion) (Panelists [4]; 33% Reduced Sucrose Frosted Flakes + 15 ppm compound vs 100% Sucrose Frosted Flakes): not significantly different in sweetness
